Results reported in BigSolDB 2.1.

COc1cccc(CCc2ccccc2OCC(CN(C)C)OC(=O)CCC(=O)O)c1.Cl (stereo not given)
solubility (mole fraction)
Conditions | in THF | in acetone | in acetonitrile | in ethanol | in isopropanol | in methanol | in n-butanol | in n-propanol
288.15 K | 2.24e-05 | 4.85e-05 | 9.78e-05 | 0.00168 | 4.48e-05 | 0.00376 | 0.00011 | 0.000171
293.15 K | 3.25e-05 | 7.84e-05 | 0.000141 | 0.00211 | 8.24e-05 | 0.00493 | 0.000146 | 0.000262
298.15 K | 4.28e-05 | 0.000106 | 0.000171 | 0.00278 | 0.00011 | 0.00653 | 0.00019 | 0.000354
303.15 K | 7.01e-05 | 0.000193 | 0.000239 | 0.00345 | 0.000144 | 0.00856 | 0.000294 | 0.000504
308.15 K | 9.92e-05 | 0.000275 | 0.000313 | 0.00476 | 0.000186 | 0.0116 | 0.000412 | 0.000698
